Test results published in patent US20180045715A1, “STRUCTURE AND FUNCTION OF THE SALICYCLIC ACID BINDING SITES ON HUMAN HMGB1 AND METHODS OF USE THEREOF FOR THE RATIONAL DESIGN OF BOTH SALICYCLIC ACID DERIVATIVES AND OTHER AGENTS THAT ALTER ANIMAL AND PLANT HMGBS ACTIVITIES” (Boyce Thompson Institute for Plant Research, Inc., priority 2015, published 2018).
pIC50: −log10 of the molar value.

Tests used:
Pep1 = assay: Callose staining: Pep1-induced callose deposition in Arabidopsis leaves; assay type: in vivo, Arabidopsis thaliana; conditions: 100 nM Pep1, 15 h
Experimental: Arabidopsis leaves were collected 15 h after infiltration with 100 nM AtHMGB3 or 100 nM Pep1, and then immediately immersed in alcoholic lactophenol (phenol:glycerol:lactic acid:water:ethanol=1:1:1:1:8) to destain the chlorophyll. To remove the background fluorescence, destained leaves were treated with toluidine blue O solution (0.05% toluidine blue O, 0.1 M sodium acetate, pH 4.4) for 30 min, and then rinsed twice with 150 mM K2HPO4 (pH 9.5). Callose was stained with aniline blue solution (0.02% aniline blue, 150 mM K2HPO4, pH 9.5) for 30 min in the absence of light. The aniline blue-stained leaves were mounted with 25% glycerol and analyzed using a Leica DM5500 epifluorescence microscope. The number of callose loci was quantified using an ImageJ (NIH).

COX = conditions: cited from earlier work
HMGB1-CXCL12 Complex = target: T1, HMGB1-CXCL12 Complex (Homo sapiens, UniProt P09429, DEL90-93); assay: WaterLOGSY NMR with HMGB1/CXCL12 complex; assay type: binding; conditions: 6 mM SA or 5 mM ac3AESA, 20 μM complex
T1 construct: (i) full length: residues 2-215; full-length disulfide-intact CXCL12; hexaHis (TEV-cleavable) (N, cleaved yes)
T1 sequence (P09429 2-215 limits assumed): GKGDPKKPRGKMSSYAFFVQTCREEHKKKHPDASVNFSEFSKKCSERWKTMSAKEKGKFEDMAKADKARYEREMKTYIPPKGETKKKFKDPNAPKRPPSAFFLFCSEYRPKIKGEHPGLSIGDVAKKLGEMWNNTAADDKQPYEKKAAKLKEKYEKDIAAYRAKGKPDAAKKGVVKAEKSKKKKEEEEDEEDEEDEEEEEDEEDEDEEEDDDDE
Description: NMR can be used to detect protein ligand interactions either by protein-detected experiments (Lepre, Moore et al. 2004), detecting changes in the frequencies of resonances of the protein sample due to ligand binding (protein-detected chemical shift perturbation (CSP) experiments), or by ligand-detected experiments (Lepre, Moore et al. 2004), in which NMR properties of the ligands due to ligand-protein interactions are detected. Protein-detected ligand binding experiments are usually done using isotope-enriched protein samples which can be studied by isotope-filtered NMR experiments, including for example ^15N-^1H-HSQC (Kay, Keifer et al. 1992). Ligand-detected experiments include the Waterlogsy experiment (Meyer and Peters 2003, Lepre, Moore et al. 2004, Furihata, Shimotakahara et al. 2008), which detects interactions in the ternary complex formed by the protein, the ligand, and one or more water molecules, and the Saturation Transfer Difference (STD) NMR experiments (Mayer and Meyer 2001, Lepre, Moore et al. 2004, Wang, Liu et al. 2004), which detects magnetization transfer from the protein to the ligand in the protein-ligand complex. The Waterlogsy experiment is a more sensitive experiment, typically employed to detect qualitatively if there is an interaction between protein and ligand. […]

AtHMGB3 = target: T2, AtHMGB3 (Arabidopsis thaliana, UniProt P93047); assay: Photoaffinity labeling of AtHMGB3 with 4AzSA, competition by SA; conditions: 50 μM 4AzSA, increasing concentrations of SA
T2 sequence (P93047 1-141): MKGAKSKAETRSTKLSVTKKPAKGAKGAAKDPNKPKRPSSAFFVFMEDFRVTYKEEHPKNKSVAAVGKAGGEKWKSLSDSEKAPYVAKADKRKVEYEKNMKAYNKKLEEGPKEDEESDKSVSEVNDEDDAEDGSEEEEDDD

HMGB1 = target: T3, HMGB1 (Homo sapiens, UniProt P09429); assay: Cell migration assay with mouse embryonic fibroblasts, WT or Ptgs2-/-; assay type: cell-based; conditions: dose-dependent, both WT and Ptgs2−/− MEFs
T3 construct: (i) full length: residues 2-215; 6x His (cleaved yes); made in house; host or cells: Escherichia coli BL21
T3 sequence (P09429 2-215): T1 sequence (P09429 2-215 limits assumed)
Experimental: Human HeLa cells were grown in T75 flasks in DMEM medium supplemented with penicillin (10,000 IU/mL) streptomycin ([…]), and 10% fetal calf serum. Ptgs2−/− MEFs were derived from Ptgs2−/− E16 mouse embryos, obtained from the mating of Ptgs2+/− mice purchased from Taconic Biosciences. PBMCs were isolated from buffy coats of donor blood (Hospital of Magenta, Milan, Italy) by Ficoll gradient centrifugation (Lymphoprep; AXIS-SHIELD. CD14+ monocytes were isolated by positive immunoselection (CD14 Microbeads; Miltenyi Biotec) according to the manufacturer's instructions, and differentiated into macrophages using X-Vivo medium supplemented with 1% heat inactivated human serum, GM-CSF, and M-CSF.
Cell migration was assayed using Boyden chambers (Venereau et al., 2012). The downside of PVP-free polycarbonate filters (8 μm pores; Millipore) was coated with 50 μg/ml fibronectin (Sigma). Serum-free DMEM (negative control), DMEM containing 0.1 nM fMLP (positive control; Sigma), or DMEM containing 1 nM HMGB1^RE or HMGB1^SS were placed in the lower chamber, together with different concentrations of SA (Sigma). The mouse 3T3 fibroblast cells were cultured in DMEM media supplemented with 10% CS until 90% confluence, washed twice with PBS to eliminate any floating cells, and harvested with trypsin. […]

## O=C(O)c1ccccc1O [SA, salicylic acid]
Pep1
  effect on Pep1-induced callose deposition: unaffected
COX; literature (Mitchell et al., 1997; Vane, 1971)
  IC50, inhibition of COX activity in vitro: > 100 µg/mL
COX; literature, conversion in parentheses, read-out: IC50, inhibition of COX activity in vitro
  pIC50: < 3.30
HMGB1-CXCL12 Complex
  WaterLOGSY binding to complex formed between CXCL12 and HMGB1: binds
AtHMGB3
  inhibition of crosslinking of 4AzSA to AtHMGB3: effectively inhibited
HMGB1
  inhibition of fibroblast migration in WT and Ptgs2-/- MEFs: effectively inhibited
